PubChem BioAssay AID720577 (The Scripps Research Institute Molecular Screening Center, 2013)
The source made the active and inactive calls. How the calls were made is not given here.

What follows are compounds tested against CCHF virus vOTU protease domain (L polyprotein) (assay: CCHF virus vOTU protease inhibition, Pep AMC substrate counterscreen, fluorescence, confirmatory IC50 (AID 720577)). Conditions: purified vOTU.
In the case of `O=C(NC(=S)Nc1ccccc1N1CCCC1)c1ccc(F)cc1`, the IC50 is reported as > 115 µM (inactive).
`Cc1coc2c(O)cc3c(c12)OC1(N2CCCCC2)C(=O)NCCCC31` (centres undefined) was tested, and the IC50 was “inactive”.
`O=S(=O)(Nc1cc(Sc2ncn[nH]2)c(O)c2ccccc12)c1ccccc1` showed an IC50 of 2.16 µM.
`C[n+]1c2ccccc2nc2ccc(NCCO)cc21` was tested, and the IC50 was “inactive”.
For `O=[N+]([O-])c1c(Nc2ccccn2)cc(Cl)c2nonc12`, the IC50 was “inactive”.
Compound `O=C1Cc2ccccc2C(=O)N1CCc1ccccc1` has an IC50 of 1.51 µM.
In the case of `NS(=O)(=O)c1ccc(NC2=CC(=O)C(=O)c3ccccc32)cc1`, the IC50 is reported as “inactive”.
For `O=C1C=C(N2CCOCC2)c2ccccc2C1=O`, the IC50 was “inactive”.
Work on `COC1=CC(=O)c2c(ccc3ncnc(N)c23)C1=O` yielded an IC50 of 0.853 µM.
For `Cc1cccc(NC(=O)c2sc3nc4c(c(-c5cccs5)c3c2N)CN(C)CC4)c1`, the IC50 was “inactive”.
Work on `O=C(O)c1ccc(NC2=C/C(=N/S(=O)(=O)c3cccs3)c3ccccc3C2=O)cc1` yielded an IC50 of 1.4 µM.
For `O=C1C=C(Nc2ccccc2)c2ccccc2C1=O`, the IC50 was “inactive”.
With `COc1ccccc1Nc1cc2cc(Br)ccc2c(=O)[nH]1` the IC50 was 1.36 µM.
`Cn1nc(-c2ccccn2)nc2c(=O)n(C)c(=O)nc1-2` gave an IC50 of 1.16 µM.
With `COc1cc(NC(=O)COC(=O)c2ccc([N+](=O)[O-])s2)cc(OC)c1OC` the IC50 was “inactive”.
With `O=C(NC(=S)Nc1ccccc1N1CCCC1)c1cccs1` the IC50 was > 115 µM (inactive).
With `O=C1C=C(N2CCCCC2)c2ccccc2C1=O` the IC50 was “inactive”.
With `CC[C@H](CO)Oc1cc(NCc2cccc(N)c2)c2ncn(C(C)C)c2c1` the IC50 was “inactive”.
For `COc1ccc(C(C[N+](=O)[O-])c2c(C)[nH]n(-c3ccccc3)c2=O)cc1` (centres undefined), the IC50 was > 115 µM (inactive).
Work on `CCOC(=O)c1c2c(n(Cc3ccccc3)c1C)C(=O)C(=O)c1ccccc1-2` yielded an IC50 of 1.49 µM.
`Oc1c(C=Nc2cccc3nsnc23)ccc2ccccc12` was tested, and the IC50 was “inactive”.
`O=C(O)c1ccc(NC2=C(n3nnc4ccccc43)C(=O)c3ccccc3C2=O)cc1` was tested, and the IC50 was “inactive”.
`O=C(O)CSc1cc(NS(=O)(=O)c2ccc(Cl)cc2)c2ccccc2c1O` was tested, and the IC50 was “inactive”.
`CCOC(=O)N=Nc1c2ccccc2c2nc3no[nH]c3nc12` gave an IC50 of 7.75 µM.
In the case of `Cc1ccc(NC2=C(N3CCOCC3)C(=O)c3ccccc3C2=O)cc1`, the IC50 is reported as “inactive”.
In the case of `O=C(COC(=O)c1ccc([N+](=O)[O-])s1)Nc1ccc(Cl)cn1`, the IC50 is reported as > 115 µM (inactive).
`CCN(CC)CCCC(C)n1c2nc(=O)[nH]c(=O)c-2nc2cc(Cl)ccc21` (centres undefined) was tested, and the IC50 was 5.44 µM.
For `CCOC(=O)/C=C(\C)Sc1cc(O)c2ccccc2c1O`, the IC50 was 4.61 µM.
With `CC(C)N(C(=O)Nc1ccc2nsnc2c1)C(C)C` the IC50 was > 115 µM (inactive).
`CCOc1ccc(NC(=S)Nc2ccc3nsnc3c2)cc1` was tested, and the IC50 was “inactive”.
`O=C1C(Cl)=C(NCCCO)C(=O)c2ccccc21` was tested, and the IC50 was “inactive”.
With `CN(C)c1ncc(C2=C(Cl)C(=O)C(N3CCCC3)=C(Cl)C2=O)s1` the IC50 was “inactive”.
`O=C(NC(=S)Nc1ccccc1N1CCCC1)c1ccccc1Br` was tested, and the IC50 was > 115 µM (inactive).
In the case of `Clc1ccc(C2=CSC3=Nc4cccc5cccc(c45)N23)cc1`, the IC50 is reported as “inactive”.
With `CNc1ccc2nc3ccccc3[n+](C)c2c1` the IC50 was “inactive”.
With `O=C1Cc2ccccc2C(=O)N1Cc1ccccc1` the IC50 was 1.3 µM.
With `Cc1ccc(N2C(=O)[C@@H]3[C@H](C2=O)C2c4ccccc4C=CN2[C@@H]3C(=O)c2ccco2)cc1` (some centres undefined) the IC50 was 5.2 µM.
In the case of `COc1cc2c(cc1OC)-c1c(OC)c(OC)cc3c1[C@H](C2)N(C)CC3`, the IC50 is reported as > 12.7 µM (inactive).
With `Cc1cnc(C=NNC(N)=S)c2cccc(N)c12` the IC50 was “inactive”.
For `O=C(O)c1ccc(NC2=C/C(=N/S(=O)(=O)c3ccccc3)c3ccccc3C2=O)cc1`, the IC50 was 1.03 µM.
`Oc1ccccc1CNc1cccc2cccnc12` was tested, and the IC50 was “inactive”.
`CCc1cc[n+](C2=C([O-])c3ccccc3C(=O)/C2=N\S(=O)(=O)c2cccs2)cc1` was tested, and the IC50 was “inactive”.
In the case of `NC1=C(Br)C(=O)c2ncccc2C1=O`, the IC50 is reported as 1.1 µM.
`CCCCCCCCCCCCN1[C@@H](CC(=O)O)c2cc(F)ccc2S1(=O)=O` was tested, and the IC50 was “inactive”.
